The source of these data is patent US20080182805A1, “O-GlcNAcase-specific inhibitor and substrate engineered by the extension of the N-Acetyl moiety” (The Gov. of the U.S.A., as represented by the Secretary, …, priority 2007, published 2008).

Each structure is given as a SMILES string.

The target in test [1] is T1, O-GlcNAcase (Homo sapiens, UniProt O60502).
T1 construct: made in house
T1 sequence (O60502 1-916): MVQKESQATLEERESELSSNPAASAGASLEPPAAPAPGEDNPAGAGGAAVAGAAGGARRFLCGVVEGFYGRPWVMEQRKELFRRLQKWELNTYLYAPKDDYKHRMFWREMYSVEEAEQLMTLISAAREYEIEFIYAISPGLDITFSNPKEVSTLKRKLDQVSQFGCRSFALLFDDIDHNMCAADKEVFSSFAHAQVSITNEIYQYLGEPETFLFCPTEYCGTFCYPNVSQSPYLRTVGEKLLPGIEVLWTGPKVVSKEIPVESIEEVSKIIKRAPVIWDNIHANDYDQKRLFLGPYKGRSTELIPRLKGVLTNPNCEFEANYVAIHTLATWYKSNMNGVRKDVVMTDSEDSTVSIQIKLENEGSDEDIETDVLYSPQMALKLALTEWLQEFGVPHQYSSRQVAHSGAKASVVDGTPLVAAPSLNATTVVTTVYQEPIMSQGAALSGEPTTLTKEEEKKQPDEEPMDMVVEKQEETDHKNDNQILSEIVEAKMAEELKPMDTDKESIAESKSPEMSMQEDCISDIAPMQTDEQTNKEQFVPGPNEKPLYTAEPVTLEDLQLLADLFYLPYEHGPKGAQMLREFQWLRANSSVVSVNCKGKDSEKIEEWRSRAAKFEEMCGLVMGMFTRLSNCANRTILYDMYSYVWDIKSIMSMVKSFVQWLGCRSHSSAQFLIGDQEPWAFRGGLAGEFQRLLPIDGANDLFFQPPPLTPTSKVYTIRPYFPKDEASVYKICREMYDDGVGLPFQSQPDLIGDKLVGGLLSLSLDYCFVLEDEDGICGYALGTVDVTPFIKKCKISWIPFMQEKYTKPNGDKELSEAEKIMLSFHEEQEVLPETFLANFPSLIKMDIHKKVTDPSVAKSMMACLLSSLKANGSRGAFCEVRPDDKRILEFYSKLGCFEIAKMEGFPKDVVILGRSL
Nature of the test: Inhibition of O-GlcNAcase measured with nonselective fluorogenic substrate (3). The settings on record: fluorescence λex=485 nm, λem=535 nm. It counts as biochemical. The protocol: (§1) The analysis of (2) was accomplished using previously reported methods.^9,11 For the determination of the inhibitory selectivity of both PUGNAc (1) and 2 at O-GlcNAcase, HEX A, and HEX B, the nonselective fluorogenic substrate (3) was utilized. The level of inhibition was determined based upon the quantification of fluorescence measured in the absence and presence of both PUGNAc (1) and (2) (intensity of fluorescence was measured at λex=485 nm at λem=535 nm). The results are compiled in FIG. 2. The analysis of (4) as a highly specific substrate for O-GlcNAcase activity was performed by the parallel treatment of O-GlcNAcase and HEX A with varying concentrations of (4) over a 45 min incubation period and the quantification of the resulting fluorescence. The results are compiled in FIG. 3.

Test [2] deals with fat cells. The settings on record: cited from earlier work.
The target of test [3] is T2, HEX B (Homo sapiens, UniProt P07686).
T2 sequence (P07686 122-556): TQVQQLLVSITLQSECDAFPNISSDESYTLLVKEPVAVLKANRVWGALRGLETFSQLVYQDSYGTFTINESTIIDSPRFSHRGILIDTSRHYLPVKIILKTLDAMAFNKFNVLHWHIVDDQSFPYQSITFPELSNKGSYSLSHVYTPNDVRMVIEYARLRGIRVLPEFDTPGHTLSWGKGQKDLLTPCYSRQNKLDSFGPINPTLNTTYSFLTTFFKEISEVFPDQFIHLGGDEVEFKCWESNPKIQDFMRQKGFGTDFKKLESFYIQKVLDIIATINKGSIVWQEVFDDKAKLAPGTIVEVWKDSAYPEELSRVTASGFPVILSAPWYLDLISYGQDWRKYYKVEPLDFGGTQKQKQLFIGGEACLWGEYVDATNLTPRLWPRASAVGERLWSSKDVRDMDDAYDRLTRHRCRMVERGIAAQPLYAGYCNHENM
The test can be described thus: Inhibition of HEX B measured with nonselective fluorogenic substrate (3). The settings on record: fluorescence λex=485 nm, λem=535 nm. It counts as biochemical. The protocol:
as §1

Test [4] has as its target T3, HEX A (Homo sapiens, UniProt P06865+P07686).
T3 sequence (P06865 89-529): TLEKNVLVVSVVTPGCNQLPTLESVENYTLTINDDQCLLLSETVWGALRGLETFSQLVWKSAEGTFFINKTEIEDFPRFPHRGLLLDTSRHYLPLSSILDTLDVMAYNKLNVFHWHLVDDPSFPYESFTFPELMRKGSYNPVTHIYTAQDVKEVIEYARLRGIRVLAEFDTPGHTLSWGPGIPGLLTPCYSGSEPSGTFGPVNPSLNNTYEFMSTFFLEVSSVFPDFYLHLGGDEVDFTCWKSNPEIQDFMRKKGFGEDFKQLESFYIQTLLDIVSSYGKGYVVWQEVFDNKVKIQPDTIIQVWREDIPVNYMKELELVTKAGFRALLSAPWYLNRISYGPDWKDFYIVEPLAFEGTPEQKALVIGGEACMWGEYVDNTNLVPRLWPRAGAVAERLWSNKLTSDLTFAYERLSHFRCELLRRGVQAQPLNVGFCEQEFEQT
T3 sequence (P07686 122-556): T2 sequence (P07686 122-556)
The test can be described thus: Inhibition of HEX A measured with nonselective fluorogenic substrate (3). It counts as biochemical. The settings on record: for inhibition of HEX A: fluorescence λex=485 nm, λem=535 nm. The protocol:
as §1

Consider `CC(=O)N[C@H]1/C(=N/OC(=O)Nc2ccccc2)O[C@H](CO)[C@@H](O)[C@@H]1O` [PUGNAc, O-(2-acet-amido-2-deoxy-D-glucopyranosylidene)amino-N-phenylcarbamate], for which, in test [1], the “inhibition of O-GlcNAcase” value is “potently inhibit”. Besides, the “effect on insulin resistance in fat cells” value in test [2] is “induces insulin resistance”. The “inhibition of HEX B” value in test [3] is “potently inhibit”. Further, in test [4], the “inhibition of HEX A” value is on record as “potently inhibit”.
Take `CCCCC(=O)N[C@H]1/C(=N/OC(=O)Nc2ccccc2)O[C@H](CO)[C@@H](O)[C@@H]1O` [compound 2]: in test [1], the “inhibition of O-GlcNAcase” value is on record as “slightly decreases the inhibitory potency”. Further, the “inhibition of HEX B” value in test [3] is listed as “total loss of inhibitory activity”. Besides, in test [4], the “concentration up to which selectivity (no inhibition) was verified against HEX A” value was over 30 µM and the “inhibition of HEX A” value was “total loss of inhibitory activity”.
